Where a name gives a salt, the structure may show the parent alone.
Key:
[1] = tested on: NCI-H292 lung cancer cells; assay: FDA drug screening, complete media vs cholesterol-free media with simvastatin (TABLE 2); format: cell-based, human; details: for Cholesterol-free media + simvastatin (0.04 μM) / Complete Media: NCI-H292 cells
[2] = tested on: NCI-H292 lung cancer cells; assay: FDA drug screening, complete media vs cholesterol-free media without statin (TABLE 1); format: cell-based, human
[3] = cholesterol-free media with simvastatin 0.04 μM, FDA drug library screen (TABLE 2)
[4] = complete media, FDA drug library screen (TABLE 2)
[5] = complete media minus cholesterol-free media + simvastatin (0.04 μM), >0 enhanced anti-cancer activity, about 0 neutral, <0 antagonist
[6] = NCI-H292 cells, cholesterol-free media without statin, FDA drug library screen
[7] = NCI-H292 cells, complete media, FDA drug library screen
[8] = complete vs cholesterol-free media, >0 enhanced anti-cancer activity, about 0 neutral, <0 antagonist
[9] = FDA drug library screen, cholesterol-free media with simvastatin 0.04 μM
[10] = FDA drug library screen, complete media
[11] = complete media minus cholesterol-free media + simvastatin, >0 enhanced anti-cancer activity, about 0 neutral, <0 antagonist
[12] = Complete minus Cholesterol-free, greater than 0 enhanced anti-cancer activity, about 0 neutral, below 0 antagonists
[13] = NCI-H292 cells in cholesterol-free media without statin
[14] = cholesterol-free media with simvastatin 0.04 μM, cell growth value in FDA drug screen
[15] = complete media, cell growth value in FDA drug screen
[16] = Complete minus Cholesterol-free, greater than 0 enhanced anti-cancer activity, about 0 neutral, below 0 antagonist
[17] = NCI-H292 cells, FDA drug library screen, cholesterol-free media without statin
[18] = NCI-H292 cells, FDA drug library screen, complete media
[19] = complete media vs cholesterol-free media + simvastatin (0.04 μM), >0 enhanced anti-cancer activity, about 0 neutral, <0 antagonist
[20] = Complete minus Cholesterol-free, >0 enhanced anti-cancer activity, about 0 neutral, <0 antagonist
[21] = NCI-H292 cells, cholesterol-free media without statin

SMILES: CC(C)Oc1ccc2c(=O)c(-c3ccccc3)coc2c1 [Ipriflavone]
- Cholesterol-free media + simvastatin (0.04 μM) [1, 3]: 1.029
- Complete Media [1, 4]: 1.016
- Difference [1, 5]: −0.01
- Cholesterol-free [2, 6]: 0.6871
- Complete [2, 7]: 1.135
- Difference [2, 8]: 0.45

SMILES: CC(C)NNC(=O)c1ccncc1 [Iproniazid]
- Cholesterol-free media + simvastatin (0.04 μM) [1, 9]: 1.211
- Complete Media [1, 10]: 1.75
- Difference [1, 11]: 0.54
- Difference [2, 12]: −0.56
- Cholesterol-free [2, 13]: 1.339
- Complete ([2]; NCI-H292 cells in complete media): 0.7813

SMILES: CCCCC1=NC2(CCCC2)C(=O)N1Cc1ccc(-c2ccccc2-c2nnn[nH]2)cc1 [Irbesartan]
- Cholesterol-free media + simvastatin (0.04 μM) [1, 14]: 0.9096
- Complete Media [1, 15]: 0.9697
- Difference [1, 11]: 0.06
- Difference [2, 16]: −0.08
- Cholesterol-free [2, 17]: 0.8711
- Complete [2, 18]: 0.7887

SMILES: CCc1c2c(nc3ccc(OC(=O)N4CCC(N5CCCCC5)CC4)cc13)-c1cc3c(c(=O)n1C2)COC(=O)[C@]3(O)CC [Irinotecan (hydrochloride trihydrate)]
- Cholesterol-free media + simvastatin (0.04 μM) [1, 9]: 0.6283
- Complete Media [1, 10]: 0.5165
- Difference [1, 19]: −0.11
- Difference [2, 16]: −0.10
- Cholesterol-free [2, 17]: 0.3845
- Complete [2, 18]: 0.2808

SMILES: CCc1c2c(nc3ccc(OC(=O)N4CCC(N5CCCCC5)CC4)cc13)-c1cc3c(c(=O)n1C2)COC(=O)[C@]3(O)CC [Irinotecan (hydrochloride)]
- Cholesterol-free media + simvastatin (0.04 μM) [1, 14]: 0.928
- Complete Media [1, 15]: 1.063
- Difference [1, 11]: 0.13
- Difference [2, 20]: 0.02
- Cholesterol-free [2, 6]: 1.352
- Complete [2, 7]: 1.37

SMILES: CCc1c2c(nc3ccc(OC(=O)N4CCC(N5CCCCC5)CC4)cc13)-c1cc3c(c(=O)n1C2)COC(=O)[C@]3(O)CC [Irinotecan]
- Cholesterol-free media + simvastatin (0.04 μM) ([1]; FDA library drug in cholesterol-free media with simvastatin 0.04 μM): 0.729
- Complete Media ([1]; FDA library drug in complete media): 0.3631
- Difference [1, 19]: −0.37
- Difference [2, 16]: −0.08
- Cholesterol-free [2, 17]: 0.2676
- Complete [2, 18]: 0.1842

SMILES: Nc1nc(N)nc(-c2cc(Cl)ccc2Cl)n1 [Irsogladine]
- Cholesterol-free media + simvastatin (0.04 μM) ([1]; drug in cholesterol-free media with simvastatin 0.04 μM): 1.185
- Complete Media ([1]; drug in complete media): 0.995
- Difference [1, 19]: −0.19
- Difference [2, 20]: −0.28
- Cholesterol-free [2, 21]: 1.27
- Complete ([2]; NCI-H292 cells, complete media): 0.9941

SMILES: Cc1cc(C(=O)NNCc2ccccc2)no1 [Isocarboxazid]
- Cholesterol-free media + simvastatin (0.04 μM) [1, 3]: 1.551
- Complete Media [1, 4]: 1.506
- Difference [1, 5]: −0.05
- Cholesterol-free [2, 6]: 0.685
- Complete [2, 7]: 1.428
- Difference [2, 8]: 0.74

SMILES: COc1ccc2c(c1O)-c1c(OC)c(OC)cc3c1[C@H](C2)N(C)CC3 [Isocorydine]
- Cholesterol-free media + simvastatin (0.04 μM) [1, 3]: 1.273
- Complete Media [1, 4]: 1.214
- Difference ([1]; complete media minus cholesterol-free media + simvastatin (0.04 μM), […]): −0.06
- Difference ([2]; Complete minus Cholesterol-free, […]): −0.17
- Cholesterol-free [2, 17]: 1.162
- Complete [2, 18]: 0.9961

SMILES: NNC(=O)c1ccncc1 [Isoniazid]
- Cholesterol-free media + simvastatin (0.04 μM) [1, 9]: 1.455
- Complete Media [1, 10]: 1.672
- Difference [1, 11]: 0.22
- Cholesterol-free [2, 6]: 0.6633
- Complete [2, 7]: 1.357
- Difference [2, 8]: 0.69

SMILES: CC(C)NCC(O)c1ccc(O)c(O)c1 (centres unmarked) [Isoprenaline (hydrochloride)]
- Cholesterol-free media + simvastatin (0.04 μM) [1, 9]: 1.496
- Complete Media [1, 10]: 1.355
- Difference [1, 19]: −0.14
- Difference [2, 12]: −0.50
- Cholesterol-free [2, 13]: 1.676

SMILES: CC(C)[N+](C)(CCC(C(N)=O)(c1ccccc1)c1ccccc1)C(C)C.[I-] [Isopropamide (iodide)]
- Cholesterol-free media + simvastatin (0.04 μM) [1, 14]: 0.9908
- Complete Media [1, 15]: 1.047
- Difference [1, 11]: 0.06
- Cholesterol-free [2, 21]: 1.319
- Complete ([2]; NCI-H292 cells, complete media): 0.9185
- Difference ([2]; complete vs cholesterol-free media, greater than 0 enhanced anti-cancer activity, about 0 neutral, below 0 antagonists): −0.40

SMILES: O=[N+]([O-])O[C@@H]1CO[C@H]2[C@@H]1OC[C@@H]2O [Isosorbide mononitrate]
- Cholesterol-free media + simvastatin (0.04 μM) [1, 9]: 0.8339
- Complete Media [1, 10]: 1.021
- Difference ([1]; complete media minus cholesterol-free media + simvastatin, […]): 0.19
- Cholesterol-free [2, 21]: 1.459
- Complete ([2]; NCI-H292 cells, complete media): 1.127
- Difference ([2]; complete vs cholesterol-free media, […]): −0.33
